Reference: the NIST ThermoML archive (doi:10.1021/je400709f)

Assay: excess molar enthalpy (molar enthalpy of mixing); xn = mol fraction of the nth substance listed
Settings: 298.15 K, 101 kPa, Liquid, Calvet calorimetry

CCCCCCCC[n+]1ccn(C)c1.F[B-](F)(F)F [1-methyl-3-octylimidazolium tetrafluoroborate] + CCO
Settings	excess molar enthalpy [kcal/mol]
x1 = 0.135	0.382
x1 = 0.137	0.386
x1 = 0.14	0.391
x1 = 0.143	0.396
x1 = 0.146	0.401
x1 = 0.149	0.406
x1 = 0.152	0.411
x1 = 0.155	0.415
x1 = 0.159	0.421
x1 = 0.162	0.426
x1 = 0.166	0.431
x1 = 0.17	0.437
x1 = 0.174	0.442
x1 = 0.178	0.448
x1 = 0.183	0.454
x1 = 0.188	0.46
x1 = 0.193	0.466
x1 = 0.198	0.472
x1 = 0.204	0.479
x1 = 0.209	0.486
x1 = 0.216	0.494
x1 = 0.222	0.502
x1 = 0.23	0.51
x1 = 0.237	0.519
x1 = 0.242	0.527
x1 = 0.247	0.534
x1 = 0.253	0.542
x1 = 0.259	0.55
x1 = 0.264	0.557
x1 = 0.271	0.565
x1 = 0.277	0.572
x1 = 0.284	0.579
x1 = 0.291	0.586
x1 = 0.299	0.592
x1 = 0.307	0.598
x1 = 0.315	0.603
x1 = 0.324	0.608
x1 = 0.334	0.611
x1 = 0.344	0.614
x1 = 0.354	0.617
x1 = 0.365	0.619
x1 = 0.377	0.621
x1 = 0.39	0.622
x1 = 0.404	0.622
x1 = 0.419	0.621
x1 = 0.435	0.619
x1 = 0.452	0.614
x1 = 0.47	0.608
x1 = 0.49	0.601
x1 = 0.499	0.597
x1 = 0.507	0.593
x1 = 0.517	0.588
x1 = 0.526	0.583
x1 = 0.536	0.577
x1 = 0.546	0.57
x1 = 0.556	0.563
x1 = 0.567	0.555
x1 = 0.579	0.546
x1 = 0.591	0.537
x1 = 0.603	0.526
x1 = 0.616	0.515
x1 = 0.629	0.503
x1 = 0.643	0.489
x1 = 0.658	0.475
x1 = 0.673	0.458
x1 = 0.689	0.441
x1 = 0.706	0.422
x1 = 0.724	0.401
x1 = 0.743	0.379
x1 = 0.762	0.354
x1 = 0.783	0.327
x1 = 0.805	0.297
x1 = 0.828	0.266
x1 = 0.852	0.23
x1 = 0.878	0.193
x1 = 0.906	0.15
x1 = 0.935	0.106
x1 = 0.966	0.0557
